Laboratory results published in patent publication US10040791B2, “Isoxazole derivative as mutant isocitrate dehydrogenase 1 inhibitor” (Daiichi Sankyo Company, Limited, priority 2014, dated 2018).
Like-named read-outs stand apart in the source and are kept apart here.

Assays:
[1] = tested on: HT-1080 cells expressing IDH1R132C; test: 2-HG production inhibitory activity using HT1080 cell; assay type: cell-based, human; conditions: Homo sapiens
Protocol: Then, 100 μL of growth medium B was added to each well, further 25 μL of a solution of each compound diluted to a predetermined concentration with growth medium B was added to each well, and the cells were incubated at 37° C. for 2 days under 5% CO2. […] Then, 150 μL of ultrapure water was further added to each well, and the mixture was stirred by pipetting and stored at −20° C.
The preserved solutions were thawed at room temperature.

[2] = target: IDH1R132C (Homo sapiens (Human), UniProt O75874, R132C); test: Inhibitory activity against IDH1R132C enzyme (NADPH detection, WST-8); assay type: biochemical; conditions: 10 nM, residual NADPH detected with WST-8, read-out: Test Example 1 IDH1 R132C IC50
Sequence of IDH1R132C (O75874 whole entry R132C): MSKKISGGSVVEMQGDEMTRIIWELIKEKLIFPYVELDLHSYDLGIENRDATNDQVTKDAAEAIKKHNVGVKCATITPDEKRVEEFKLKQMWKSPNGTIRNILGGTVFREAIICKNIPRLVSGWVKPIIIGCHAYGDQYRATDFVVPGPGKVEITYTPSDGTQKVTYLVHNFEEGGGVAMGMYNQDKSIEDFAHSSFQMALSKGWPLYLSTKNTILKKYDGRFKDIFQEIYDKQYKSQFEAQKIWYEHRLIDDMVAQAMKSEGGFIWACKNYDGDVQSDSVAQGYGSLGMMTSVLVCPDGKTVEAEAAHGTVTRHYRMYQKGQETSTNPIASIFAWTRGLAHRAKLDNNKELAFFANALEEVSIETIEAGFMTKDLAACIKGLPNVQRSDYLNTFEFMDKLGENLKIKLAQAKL
Protocol: After transformation of Rosetta 2 (DE3) E. coli, the expression of the protein was induced with IPTG.
While NADPH-derived fluorescence was occasionally monitored, the reaction was terminated by the addition of 5 μL of 0.5 M EDTA before consumption of NADPH. 5 μL of WST-8 reagent (Dojindo Laboratories, #CK04) was further added and mixed therewith. 15 minutes later, the absorbance at 450 nm was measured using a plate reader (PerkinElmer, Inc., EnVision). The observed absorbance value reflects the amount of residual NADPH. From the absorbance data, the enzyme inhibitory activity of each compound at each concentration was calculated and analyzed using medical statistical analysis software GraphPad Prism to calculate an IC50 value.

[3] = HT-1080, 2-HG production, HT1080 cells, read-out: Test Example 3 IC50

Row | Compound | IC50 [1, 3] [nM] | IC50 [2] [nM] | IC50 ([1]; HT-1080, read-out: Test Example 3 IC50 (nM)) [nM]
1 | CC1(c2onc(-c3c(Cl)cc(Cl)cc3Cl)c2C(=O)n2ccc3c(/C=C/C(=O)O)ccnc32)COC1 [Example 9, (2E)-3-(1-{[5-(3-Methyloxetan-3-yl)-3-(2,4,6-trichlorophenyl)-1,2-oxazol-4-yl]carbonyl}-1H-pyrrolo[2,3-b]pyridin-4-yl]prop-2-enoic acid] | 1270 | 107 | 
2 | COC1(c2onc(-c3c(F)cc(Cl)cc3Cl)c2C(=O)n2cc(C)c3c(/C=C/C(=O)O)cccc32)CCC1 [Example 14, (2E)-3-(1-{[3-(2,4-Dichloro-6-fluorophenyl)-5-(1-methoxycyclobutyl)-1,2-oxazol-4-yl]carbonyl}-3-methyl-1H-indol-4-yl]prop-2-enoic acid] | 32 | 110 | 
3 | CC(C)(F)c1onc(-c2ccc(Cl)c(F)c2Cl)c1C(=O)n1cc2c3c(cccc31)/C(=C/C(=O)O)CC2 [Example 20, (2E)-[1-{[3-(2,4-Dichloro-3-fluorophenyl)-5-(2-fluoropropan-2-yl)-1,2-oxazol-4-yl]carbonyl}-3,4-dihydrobenzo[cd]indol-5(1H)-ylidene]ethanoic acid] | 435 | 267 | 
4 | CC(C)(C)c1onc(-c2c(Cl)cccc2Cl)c1C(=O)n1ccc2c(/C=C/C(=O)O)cccc21 [Example 24, (2E)-3-(1-{[5-(tert-Butyl)-3-(2,6-dichlorophenyl)-1,2-oxazol-4-yl]carbonyl}-1H-indol-4-yl)prop-2-enoic acid] | 255 | 182 | 
5 | COC(C)(C)c1onc(-c2c(Cl)cccc2Cl)c1C(=O)n1ccc2c(/C=C/C(=O)O)cccc21 [Example 27, (2E)-3-(1-{[3-(2,6-Dichlorophenyl)-5-(2-methoxypropan-2-yl)-1,2-oxazol-4-yl]carbonyl}-1H-indol-4-yl)prop-2-enoic acid] | 128 | 160 | 
6 | CC(C)c1onc(-c2c(Cl)ccc(F)c2Cl)c1C(=O)n1ccc2c(/C=C/C(=O)O)cccc21 [Example 28, (2E)-3-(1-{[3-(2,6-Dichloro-3-fluorophenyl)-5-(propan-2-yl)-1,2-oxazol-4-yl]carbonyl}-1H-indol-4-yl)prop-2-enoic acid] | 401 | 90 | 
7 | COC(C)(C)c1onc(-c2c(Cl)cc(Cl)cc2Cl)c1C(=O)n1ccc2c(/C=C/C(=O)O)cccc21 [Example 31, (2E)-3-(1-{[5-(2-Methoxypropan-2-yl)-3-(2,4,6-trichlorophenyl)-1,2-oxazol-4-yl]carbonyl}-1H-indol-4-yl)prop-2-enoic acid] | 24 | 57 | 
8 | CC(C)(C)c1onc(-c2c(Cl)cc(Cl)cc2Cl)c1C(=O)N1CCc2c(/C=C/C(=O)O)cccc21 [Example 32, (2E)-3-(1-{[5-(tert-Butyl)-3-(2,4,6-trichlorophenyl)-1,2-oxazol-4-yl]carbonyl}-2,3-dihydro-1H-indol-4-yl)prop-2-enoic acid] | 413 | 176 | 
9 | CC(C)(C)c1onc(-c2c(Cl)cccc2Br)c1C(=O)n1ccc2c(/C=C/C(=O)O)cccc21 [Example 39, (2E)-3-(1-{[3-(2-Bromo-6-chlorophenyl)-5-(tert-butyl)-1,2-oxazol-4-yl]carbonyl}-1H-indol-4-yl)prop-2-enoic acid] | 389 | 168 | 
10 | Cc1cc(Cl)cc(Cl)c1-c1noc(C(C)(C)C)c1C(=O)n1ccc2c(/C=C/C(=O)O)cccc21 [Example 41, (2E)-3-(1-{[5-(tert-Butyl)-3-(2,4-dichloro-6-methylphenyl)-1,2-oxazol-4-yl]carbonyl}-1H-indol-4-yl)prop-2-enoic acid] | 254 | 280 | 
11 | CC(C)(F)c1onc(-c2c(Cl)cc(Cl)cc2Cl)c1C(=O)n1cc(F)c2c(/C=C/C(=O)O)cccc21 [Example 45, (2E)-3-(3-Fluoro-1-{[5-(2-fluoropropan-2-yl)-3-(2,4,6-trichlorophenyl)-1,2-oxazol-4-yl]carbonyl}-1H-indol-4-yl)prop-2-enoic acid] | 60 | 114 | 
12 | COc1cc(Cl)cc(Cl)c1-c1noc(C(C)(C)F)c1C(=O)n1cc(C)c2c(/C=C/C(=O)O)cccc21 [Example 58, (2E)-3-(1-{[3-(2,4-Dichloro-6-methoxyphenyl)-5-(2-fluoropropan-2-yl)-1,2-oxazol-4-yl]carbonyl}-3-methyl-1H-indol-4-yl)prop-2-enoic acid] | 295 | 178 | 
13 | CC(=O)c1cn(C(=O)c2c(-c3c(Cl)cc(Cl)cc3Cl)noc2C(C)(C)F)c2cccc(/C=C/C(=O)O)c12 [Example 64, (2E)-3-(3-Acetyl-1-{[5-(2-fluoropropan-2-yl)-3-(2,4,6-trichlorophenyl)-1,2-oxazol-4-yl]carbonyl}-1H-indol-4-yl)prop-2-enoic acid] | > 2000 | 888 | 
14 | C=Cc1ccc(-c2onc(-c3c(Cl)cc(Cl)cc3Cl)c2C(=O)n2ccc3c(/C=C/C(=O)O)cccc32)cn1 [Example 73, (2E)-3-(1-{[5-(6-Ethenylpyridin-3-yl)-3-(2,4,6-trichlorophenyl)-1,2-oxazol-4-yl]carbonyl}-1H-indol-4-yl)prop-2-enoic acid] |  | 208 | 7
15 | CC1(c2onc(-c3c(Cl)cccc3Cl)c2C(=O)n2ccc3c(/C=C/C(=O)O)cccc32)COC1 [Example 75, (2E)-3-(1-{[3-(2,6-Dichlorophenyl)-5-(3-methyloxetan-3-yl)-1,2-oxazol-4-yl]carbonyl}-1H-indol-4-yl)prop-2-enoic acid] | 138 | 118 | 
16 | NC[C@H]1CCN(c2onc(-c3c(Cl)cccc3Cl)c2C(=O)n2ccc3c(/C=C/C(=O)O)cccc32)C1 [Example 139, (2E)-3-[1-({5-[(3R)-3-(Aminomethyl)pyrrolidin-1-yl]-3-(2,6-dichlorophenyl)-1,2-oxazol-4-yl}carbonyl)-1H-indol-4-yl]prop-2-enoic acid] | 339 |  | 
17 | NC[C@@H]1CCN(c2onc(-c3c(Cl)cccc3Cl)c2C(=O)n2ccc3c(/C=C/C(=O)O)cccc32)C1 [Example 140] |  | 1040 | 

Now from value to compound, other results behind:

Row | IC50 [1, 3] [nM] | IC50 [2] [nM] | Compound | IC50 ([1]; HT-1080, read-out: Test Example 3 IC50 (nM)) [nM]
18 | 42 |  | CCC1(c2onc(-c3c(Cl)cccc3Cl)c2C(=O)n2ccc3c(/C=C/C(=O)O)cccc32)COC1 [Example 5, (2E)-3-(1-{[3-(2,6-Dichlorophenyl)-5-(3-ethyloxetan-3-yl)-1,2-oxazol-4-yl]carbonyl}-1H-indol-4-yl)prop-2-enoic acid] | 
19 | 459 | 151 | O=C(O)/C=C/c1cccc2c1ccn2C(=O)c1c(-c2c(Cl)cc(Cl)cc2Cl)noc1C1(F)COC1 [Example 6, (2E)-3-(1-{[5-(3-Fluorooxetan-3-yl)-3-(2,4,6-trichlorophenyl)-1,2-oxazol-4-yl]carbonyl}-1H-indol-4-yl)prop-2-enoic acid] | 
20 | 787 | 152 | CC(C)(O)c1onc(-c2c(Cl)cccc2Cl)c1C(=O)n1ccc2c(/C=C/C(=O)O)cccc21 [Example 7, (2E)-3-(1-{[3-(2,6-Dichlorophenyl)-5-(2-hydroxypropan-2-yl)-1,2-oxazol-4-yl]carbonyl}-1H-indol-4-yl)prop-2-enoic acid] | 
21 | 37 | 106 | COC1(c2onc(-c3c(F)cc(Cl)cc3Cl)c2C(=O)n2cc3c4c(cccc42)/C(=C/C(=O)O)CC3)CCC1 [Example 15, (2E)-[1-{[3-(2,4-Dichloro-6-fluorophenyl)-5-(1-methoxycyclobutyl)-1,2-oxazol-4-yl]carbonyl}-3,4-dihydrobenzo[cd]indol-5(1H)-ylidene]ethanoic acid] | 
22 | 242 | 201 | Cc1cn(C(=O)c2c(-c3ccc(Cl)c(F)c3Cl)noc2C(C)(C)F)c2cccc(/C=C/C(=O)O)c12 [Example 17] | 
23 | 709 | 75 | CC(C)c1onc(-c2c(Cl)cccc2Cl)c1C(=O)n1ccc2c(/C=C/C(=O)O)cccc21 [Example 23, (2E)-3-(1-{[3-(2,6-Dichlorophenyl)-5-(propan-2-yl)-1,2-oxazol-4-yl]carbonyl}-1H-indol-4-yl)prop-2-enoic acid] | 
24 | 248 | 326 | Cc1cn(C(=O)c2c(-c3c(Cl)cccc3Cl)noc2C(C)C)c2cccc(/C=C/C(=O)O)c12 [Example 25, (2E)-3-(1-{[3-(2,6-Dichlorophenyl)-5-(propan-2-yl)-1,2-oxazol-4-yl]carbonyl}-3-methyl-1H-indol-4-yl)prop-2-enoic acid] | 
25 | 248 | 253 | CC(C)c1onc(-c2c(Cl)cc(Cl)cc2Cl)c1C(=O)n1ccc2c(/C=C/C(=O)O)cccc21 [Example 26, (2E)-3-(1-{[5-(Propan-2-yl)-3-(2,4,6-Trichlorophenyl)-1,2-oxazol-4-yl]carbonyl}-1H-indol-4-yl)prop-2-enoic acid] | 
26 | 350 | 114 | Cc1cn(C(=O)c2c(-c3c(Cl)ccc(F)c3Cl)noc2C(C)C)c2cccc(/C=C/C(=O)O)c12 [Example 30, (2E)-3-(1-{[3-(2,6-Dichloro-3-fluorophenyl)-5-(propan-2-yl)-1,2-oxazol-4-yl]carbonyl}-3-methyl-1H-indol-4-yl)prop-2-enoic acid] | 
27 | 118 | 94 | COC1(c2onc(-c3c(Cl)cccc3Cl)c2C(=O)n2ccc3c(/C=C/C(=O)O)cccc32)COC1 [Example 76, (2E)-3-(1-{[3-(2,6-Dichlorophenyl)-5-(3-methoxyoxetan-3-yl)-1,2-oxazol-4-yl]carbonyl}-1H-indol-4-yl)prop-2-enoic acid] | 
